Source: US8497274B2, “Heterocyclic compound and use thereof” (Takeda Pharmaceutical Company Limited, priority 2008, dated 2013)

Assays:
[1] = tested on: MEK1/2 phosphorylation in human colon cancer cell HT-29; assay: Colon cancer cell HT-29 intracellular MEK phosphorylation inhibitory activity in vitro; type: cell-based; conditions: HT-29 cells; for IC50: 2 hrs treatment, phosphorylated MEK1/2 Western blot; for inhibition at 0.5 µM: MEK1/2 protein phosphorylation, compound 0.5 μM, read-out: Inhibitory rate (%) at 0.5 μM
Method: 500 μL of a cell suspension of human colon cancer cell HT-29 (purchased from American Type Culture Collection (ATCC)) was plated in a 48-well plate (100,000 cells/well), and the cells were cultured overnight at 37° C. in the presence of 5% CO2, treated with a test compound (250 μL/well) diluted in 3-fold dilution series and cultured for 2 hrs. After 2 hrs, the culture medium containing the test compound was removed, and the cells were lysed with SDS sample buffer (100 μL/well) and heated at 95° C. for 5 min. Thereafter, the cells lysed with SDS sample buffer were applied to SDS-PAGE, and the protein was transferred onto Sequi-Blot™ PVDF Membrane (Bio-Rad) by the Western blot method. The PDVF membrane was blocked with a Block-Ace solution (Snow Brand Milk Products Co., Ltd) dissolved in phosphate buffered saline (MP Biochemicals) to 5% W/V, and reacted overnight with anti-phosphorylated MEK1/2 (Ser217/221) (Cell signaling #9121) diluted 1000-fold with phosphate buffered saline containing 0.4% Block-Ace. The membrane was washed with phosphate buffered saline containing 0.1% Tween 20 (Wako Pure Chemical Industries, Ltd.), and reacted at room temperature for 1 hr with HRP labeled rabbit IgG polyclonal antibody (Cell signaling #7074) diluted 1000-fold with phosphate buffered saline containing 0.4% Block-Ace. The membrane was washed in the same manner as above, chemical luminescence of a phosphorylated MEK1/2 protein labeled with the antibody, which was caused by ECL-plus Detection Reagent (Amersham bioscience), was detected by Luminescent Image Analyzer LAS-1000 (FUJIFILM Corporation). Taking the luminescence of the control group free of the test compound as 100%, the concentration (IC50 value) of the compound necessary for inhibiting the residual luminescence to 50% of the control group was calculated. In addition, MEK1/2 protein phosphorylation inhibitory rate (%) of the test compound at compound concentration 0.5 μM was calculated by the following formula. The results are shown in Table 2-B. Inhibitory rate (%)=(1−(luminescence of test compound−blank)÷(luminescence of control group−blank))×100

BRAF (V600E) kinase = BRAF (V600E) kinase (Homo sapiens (Human), UniProt P15056, V600E); assay: BRAF (V600E) kinase inhibitory activity; type: biochemical; conditions: BRAF (V600E) enzyme, GSTP1-MEK1 (K96R) substrate, compound 1.0 μM; read-out: Inhibitory rate (%) at 1.0 μM
BRAF (V600E) kinase, sequence (P15056 457-717 V600E): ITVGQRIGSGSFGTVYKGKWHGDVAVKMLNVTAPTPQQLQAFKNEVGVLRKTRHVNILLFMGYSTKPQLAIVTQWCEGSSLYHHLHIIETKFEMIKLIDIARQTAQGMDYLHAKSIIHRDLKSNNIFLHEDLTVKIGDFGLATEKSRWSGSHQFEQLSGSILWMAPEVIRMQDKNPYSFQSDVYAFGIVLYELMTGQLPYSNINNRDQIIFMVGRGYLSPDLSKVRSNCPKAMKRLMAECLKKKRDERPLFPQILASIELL
Method: A test compound (2.5 μL) dissolved in dimethyl sulfoxide (DMSO) was added to 37.5 μL of a reaction solution (25 mM HEPES (pH 7.5), 10 mM magnesium acetate, 1 mM dithiothreitol) containing 30 ng of BRAF (V600E) enzyme and 250 ng of recombinant protein GSTP1-MEK1 (K96R) prepared using FreeStyle 293 expression system (Invitrogen), and the mixture was incubated at room temperature for 10 min. 10 μL of ATP solution (2.5 μM ATP, 0.1 μCi [γ-^32P]ATP) was added to the obtained mixture, and the mixture was reacted at room temperature for 20 min. The reaction was quenched by adding 50 μL of ice-cooled 20% trichloroacetic acid (Wako Pure Chemical Industries, Ltd.) to the reaction solution. The reaction solution was allowed to stand at 4° C. for 30 min., and the acid-precipitable fraction was transferred to GF/C filter plate (Millipore Corporation) using cell harvester (PerkinElmer). The plate was dried at 45° C. for 60 min., and 40 μL of MicroScinti 0 (PerkinElmer) was added thereto. The radioactivity was measured using TopCount (PerkinElmer). The kinase inhibitory rate (%) of the test compound was calculated by the following formula: Inhibitory rate (%)=(1−(count of test compound−blank)÷(control−blank))×100
The count of the solution reacted without addition of the compound was used as a “control”, and the count of the solution without the compound and enzyme was used as a “blank”.

[2] = tested on: human colon cancer cell HT-29; assay: Colon cancer cell HT-29 growth suppressive activity in vitro; type: cell-based; conditions: for IC50: 72 h, HT-29 cells, 3 days culture, SRB staining; for inhibition at 10 µM: HT-29 cell proliferation, compound 10 μM, read-out: Inhibitory rate (%) at 10 μM
Method: 100 μL of a cell suspension (3,000 cells/well) of human colon cancer cell HT-29 (purchased from ATCC) was plated in a 96-well plate, and the cells were cultured at 37° C. in the presence of 5% CO2. The next day, 100 μL of culture medium containing each test compound diluted in 2-fold dilution was added, and the cells were cultured for 3 days. The culture medium containing the test compound was removed, and the cells were washed with phosphate buffered saline (MP Biochemicals). A 50% trichloroacetic acid solution was added to the final concentration of 10% (v/v), and the mixture was stood overnight at 4° C., whereby the cells were fixed to the plate. Then, a dye SRB 0.4% (w/v) solution (dissolved in 1% acetic acid) was added at 50 μl/well, whereby the cell protein was fixed and stained (Skehan et al., Journal Of National Cancer Institute, vol. 82, pp. 1107-1112, 1990). The cells were washed 3 times with 1% acetic acid solution (200 μL/well), and 100 μL of an extract (10 mM Tris buffer) was added to extract the dye. The absorbance at an absorption wavelength 550 nm was measured, and cell amount was measured as a protein amount. Taking the protein amount of the control group free of the test compound solution as 100%, the proportion of the residual protein amount of each treatment group was determined and the concentration of the compound necessary for suppressing the residual cell amount to 50% of the control (IC50 value) was calculated. In addition, cell proliferation inhibitory rate (%) of the test compound at compound concentration 10 μM was calculated by the following formula. The results are shown in Table 3-B. Inhibitory rate (%)=(1−(absorbance of test compound−blank)÷(absorbance of control group−blank))×100

COC(=O)c1c(Oc2ccc(F)c(NC(=O)Cc3cccc(C(F)(F)F)c3)c2)ccc2nc(NC(=O)C3CC3)sc12 [Example 54, methyl 2-[(cyclopropylcarbonyl)amino]-6-[4-fluoro-3-({[3-(trifluoromethyl)phenyl]acetyl}amino)phenoxy]-1,3-benzothiazole-7-carboxylate]
IC50 [1]: < 300 nM | inhibition at 0.5 µM [1]: 100%

CC(=O)Nc1nc2ccc(Oc3cccc(NC(=O)Nc4ccc(Cl)c(C(F)(F)F)c4)c3)c(C#N)c2s1 [Example 21, N-{6-[3-({[4-chloro-3-(trifluoromethyl)phenyl]carbamoyl}amino)phenoxy]-7-cyano-1,3-benzothiazol-2-yl}acetamide]
inhibition at 1 µM (BRAF (V600E) kinase): 100%

CC(C)(C#N)c1cccc(C(=O)Nc2cccc(Oc3ccc4nc(NC(=O)C5CC5)sc4c3C#N)c2)c1 [Example 1, N-[3-({7-cyano-2-[(cyclopropylcarbonyl)amino]-1,3-benzothiazol-6-yl}oxy)phenyl]-3-(1-cyano-1-methylethyl)benzamide]
inhibition at 1 µM (BRAF (V600E) kinase): 101%

N#Cc1c(Oc2cccc(NC(=O)Nc3ccc(C(F)(F)F)nc3)c2)ccc2nc(NC(=O)C3CC3)sc12 [Example 51, N-{7-cyano-6-[3-({[6-(trifluoromethyl)pyridin-3-yl]carbamoyl}amino)phenoxy]-1,3-benzothiazol-2-yl}cyclopropanecarboxamide]
inhibition at 1 µM (BRAF (V600E) kinase): 100%

CC(=O)Nc1nc2ccc(Oc3cccc(NC(=O)Cc4cccc(C(F)(F)F)c4)c3)c(C#N)c2s1 [Example 49, N-(3-{[2-(acetylamino)-7-cyano-1,3-benzothiazol-6-yl]oxy}phenyl)-2-[3-(trifluoromethyl)phenyl]acetamide]
IC50 [1]: < 300 nM | inhibition at 0.5 µM [1]: 63%

N#Cc1c(Oc2cccc(NC(=O)Nc3ccc(C(F)(F)F)cn3)c2)ccc2nc(NC(=O)C3CC3)sc12 [Example 52, N-{7-cyano-6-[3-({[5-(trifluoromethyl)pyridin-2-yl]carbamoyl}amino)phenoxy]-1,3-benzothiazol-2-yl}cyclopropanecarboxamide]
inhibition at 1 µM (BRAF (V600E) kinase): 98%

N#Cc1c(Oc2ccc(F)c(NC(=O)Nc3ccc(C(F)(F)F)cc3)c2)ccc2nc(NC(=O)C3CC3)sc12 [Example 32, N-{7-cyano-6-[4-fluoro-3-({[4-(trifluoromethyl)phenyl]carbamoyl}amino)phenoxy]-1,3-benzothiazol-2-yl}cyclopropanecarboxamide]
IC50 [1]: < 300 nM | inhibition at 0.5 µM [1]: 83%

CC(C)(C#N)c1cccc(C(=O)Nc2cccc(Oc3ccc4nc(NC(=O)C5CC5)sc4c3Cl)c2)c1 [Example 44, N-[3-({7-chloro-2-[(cyclopropylcarbonyl)amino]-1,3-benzothiazol-6-yl}oxy)phenyl]-3-(1-cyano-1-methylethyl)benzamide]
IC50 [2]: < 500 nM | inhibition at 10 µM [2]: 93%

CC(=O)Nc1nc2ccc(Oc3cccc(NC(=O)Nc4ccc(C(C)(C)C)cc4)c3)c(C#N)c2s1 [Example 22, N-[6-(3-{[(4-tert-butylphenyl)carbamoyl]amino}phenoxy)-7-cyano-1,3-benzothiazol-2-yl]acetamide]
IC50 [1]: < 300 nM | inhibition at 0.5 µM [1]: 83%

CC(C)(C#N)c1cccc(C(=O)Nc2cccc(Oc3ccc4nc(NC(=O)C5CC5)sc4c3N)c2)c1 [Example 43, N-[3-({7-amino-2-[(cyclopropylcarbonyl)amino]-1,3-benzothiazol-6-yl}oxy)phenyl]-3-(1-cyano-1-methylethyl)benzamide]
IC50 [2]: < 500 nM | inhibition at 10 µM [2]: 100%

CC(C)(C#N)c1cccc(C(=O)Nc2cccc(Oc3ccc4nc(NC(=O)C5CC5)sc4c3[N+](=O)[O-])c2)c1 [Example 37, 3-(1-cyano-1-methylethyl)-N-[3-({2-[(cyclopropylcarbonyl)amino]-7-nitro-1,3-benzothiazol-6-yl}oxy)phenyl]benzamide]
IC50 [2]: < 500 nM | inhibition at 10 µM [2]: 93%

CC(=O)Nc1nc2ccc(Oc3cccc(NC(=O)C(C)(C)c4cccc(Br)c4)c3)c(C#N)c2s1 [Example 13, N-(3-{[2-(acetylamino)-7-cyano-1,3-benzothiazol-6-yl]oxy}phenyl)-2-(3-bromophenyl)-2-methylpropanamide]
inhibition at 1 µM (BRAF (V600E) kinase): 98%

CC(=O)Nc1nc2ccc(Oc3cccc(NC(=O)c4cccc(C(C)(C)C#N)c4)c3)c(C#N)c2s1 [Example 11, N-(3-{[2-(acetylamino)-7-cyano-1,3-benzothiazol-6-yl]oxy}phenyl)-3-(1-cyano-1-methylethyl)benzamide]
inhibition at 1 µM (BRAF (V600E) kinase): 101%
